Measured values from patent publication US5451688A, “Hexahydronaphthalene ester derivatives, their preparation and their therapeutic uses” (Sankyo Company, Limited, priority 1992, dated 1995).
pIC50: −log10 of the molar value. Read-outs that look alike come from different tables or passages of the source.

Legend:
HMG-CoA reductase = molecular target: T1, HMG-CoA reductase (Rattus norvegicus, UniProt P51639); assay: HMG-CoA reductase inhibitory activity; format: biochemical; settings: rat liver microsomal fraction, 0.2 mM [14C]HMG-CoA, pH 7.4, 15 minutes at 37° C.
T1 sequence (P51639 1-887): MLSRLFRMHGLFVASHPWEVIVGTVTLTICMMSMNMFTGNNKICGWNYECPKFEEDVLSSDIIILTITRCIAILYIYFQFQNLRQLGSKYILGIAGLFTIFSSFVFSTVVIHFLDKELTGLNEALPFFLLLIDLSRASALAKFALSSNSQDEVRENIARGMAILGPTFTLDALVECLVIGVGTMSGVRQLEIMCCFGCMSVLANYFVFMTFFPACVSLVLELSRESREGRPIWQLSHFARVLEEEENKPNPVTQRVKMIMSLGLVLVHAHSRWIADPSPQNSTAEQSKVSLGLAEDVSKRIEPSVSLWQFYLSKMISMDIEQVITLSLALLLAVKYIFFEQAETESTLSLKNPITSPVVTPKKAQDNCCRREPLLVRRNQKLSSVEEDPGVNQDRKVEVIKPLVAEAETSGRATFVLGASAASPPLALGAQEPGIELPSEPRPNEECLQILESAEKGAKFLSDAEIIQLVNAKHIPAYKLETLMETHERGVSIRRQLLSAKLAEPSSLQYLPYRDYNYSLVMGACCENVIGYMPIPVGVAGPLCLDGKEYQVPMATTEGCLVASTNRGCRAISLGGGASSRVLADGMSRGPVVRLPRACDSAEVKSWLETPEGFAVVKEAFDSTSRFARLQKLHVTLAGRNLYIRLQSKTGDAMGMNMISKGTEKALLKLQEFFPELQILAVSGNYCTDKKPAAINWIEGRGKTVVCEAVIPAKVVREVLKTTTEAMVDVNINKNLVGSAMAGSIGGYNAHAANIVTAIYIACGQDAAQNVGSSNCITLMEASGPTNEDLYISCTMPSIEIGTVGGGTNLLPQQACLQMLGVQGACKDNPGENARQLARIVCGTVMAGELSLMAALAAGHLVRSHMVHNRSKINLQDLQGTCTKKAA

[1] = tested on: sterol synthesis in the liver; assay: inhibitory activity against sterol synthesis in mouse liver; format: in vivo; settings: read-out: Sterol-synthesis inhibitory activity ED50
Protocol: Detemination of inhibitory activity against sterol synsthesis in mouse liver
Sterol synthesis in the liver in mice was measured by the method of Koga et al. [Biochem. Biophys.
15 μl of [^14 C]acetate was intraperitoneally injected into each mouse. One hour later, the animal was sacrificed by decapitation and the liver was excised. Sterol synthesis in the liver was measured by the incorporation of [^14 C]activity into the digitoninprecipitable sterols.
The sterol synthesis activity in a control animal receiving only a 1% Tween 80 solution was defined as 100%.

[2] = mice, oral, 2 hours before [14C]acetate, dose required to inhibit sterol synthesis in the liver by 50%

| Compound | pIC50 (HMG-CoA reductase) | ED50 ([1]; po) [mg/kg] | ED50 [1, 2] [mg/kg] |
| --- | --- | --- | --- |
| CCCC(CCC)C(=O)O[C@H]1C[C@H](O)C=C2C=C[C@H](C)[C@H](CC[C@@H](O)C[C@@H](O)CC(=O)[O-])[C@H]21.[Na+] | 7.45 | 0.15 | – |
| CCC(C)(CC)C(=O)O[C@H]1C[C@H](O)C=C2C=C[C@H](C)[C@H](CC[C@@H](O)C[C@@H](O)CC(=O)O)[C@H]21 [Example 51, Sodium (3R,5R)-3,5-dihydro-7-[(1S,2S,6S,8S,8aR)-6-hydroxy-2-methyl-8-(2-ethyl-2-methylbutyryloxy)-1,2,6,7,8,8a-hexahydro-1-naphthyl]heptanoate] | 7.47 | – | 0.063 |
| C=CCC(CC)(CC)C(=O)O[C@H]1C[C@H](O)C=C2C=C[C@H](C)[C@H](CC[C@@H](O)C[C@@H](O)CC(=O)O)[C@H]21 [Example 64, Sodium (3R,5R),3,5-dihydroxy-7-[(1S,2S,6S,8S,8aR)-6-hydroxy-2-methyl-8-(2,2-diethyl-4-pentenoyloxy)-1,2,6,7,8,8a-hexahydro-1-naphthyl]heptanoate] | 7.46 | – | 0.13 |
| C=CCC(CC)(CC=C)C(=O)O[C@H]1C[C@H](O)C=C2C=C[C@H](C)[C@H](CC[C@@H](O)C[C@@H](O)CC(=O)O)[C@H]21 [Example 65, Sodium (3R,5R)-3,5-dihydroxy-7-[(1S,2S,6S,8S,8aR)-6-hydroxy-2-methyl-8-(2-allyl-2-ethyl-4-pentenoyloxy)-1.2.6,7,8,8a-hexahydro-1-naphthyl]heptanoate] | 7.44 | – | 0.19 |
| CCC(C)(C)C(=O)OC1CC(O)C=C2C=CC(C)C(CCC3CC(O)CC(=O)O3)C21 (stereo not shown) [Prior art cpd., reference compound] | 7.35 | – | 0.58 |

Further lines, with some results ahead:

| pIC50 (HMG-CoA reductase) | Compound | ED50 ([1]; po) [mg/kg] | ED50 [1, 2] [mg/kg] |
| --- | --- | --- | --- |
| 7.49 | CCC(CC)(CC)C(=O)O[C@H]1C[C@H](O)C=C2C=C[C@H](C)[C@H](CC[C@@H](O)C[C@@H](O)CC(=O)O)[C@H]21 [Example 52, Sodium (3R,5R)-3,5-dihydroxy-7-[(1S,2S,6S,8S,8aR)-6-hydroxy-2-methyl-8-(2.2-diethylbutyryloxy)-1,2,6,7,8,8a-hexahydro-1-naphthyl]heptanoate] | – | 0.054 |
| 7.49 | CCC[C@](C)(CC)C(=O)O[C@H]1C[C@H](O)C=C2C=C[C@H](C)[C@H](CC[C@@H](O)C[C@@H](O)CC(=O)O)[C@H]21 [Example 67, Sodium (3R,5R)-3,5-dihydroxy-7-[(2S,2S,6S,8S,8aR)-6-hydroxy-2-methyl-8-(2-ethyl-2-methylvaleryloxy)-1,2,6,7,8,8a-hexahydro-1-naphthyl]heptanoate] | – | 0.048 |
| 7.48 | CCCCC(C)(C)C(=O)O[C@H]1C[C@H](O)C=C2C=C[C@H](C)[C@H](CC[C@@H](O)C[C@@H](O)CC(=O)O)[C@H]21 [Example 69, Sodium (3R,5R)-3,5-dihydroxy-7-[(1S,2S,6S,8S,8aR)-6-hydroxy-2-methyl-8-[2,2-dimethylhexanoyloxy)-1,2.6.7,8,8a-hexahydro-1-naphthyl]heptanoate] | – | 0.028 |
